Experimental data as given in patent publication US7982017B2, “Antibodies recognizing a carbohydrate containing epitope on CD-43 and CEA expressed on cancer cells and methods using same” (BioAlliance C.V., priority 2007, dated 2011).

Experiments:
Colo205 cells = test: Apoptosis of Colo205 cells by 5F1 antibodies in combination with Oxaliplatin (24 h, Annexin V / PI); assay type: cell-based; details: background subtracted
Experimental: 1.4×10^5 of Colo205 cells were seeded into the wells of 96-well plates. Aliquots of Oxaliplatin reconstituted in 5% glucose solution were prepared freshly and added to each well at the final concentration of 1 and 10 ug/ml, along or in combination with aliquots of purified c5F1-v17, c5F1-v24, c5F1-v25 and control antibodies at the final concentrations of 10 and 30 ug/ml. The treated cells were kept at 37° incubator for 24 h before FACS analysis for apoptosis. For cellular apoptosis assay, Annexin V staining was measured using Annexin-V-FITC Apoptosis Detection Kit (Strong Biotech, Cat. No. AV 250) following the manufacturer's instruction. In brief, the treated cells were harvested and resuspended in Annexin V binding buffer containing Annexin V-FITC at room temperature. After 15 min incubation in the dark, the cells were washed twice with 200 ul of Annexin V binding buffer. Before FACS analysis, 0.5 ul of propidium iodide (PI) was added. All flow cytometric analyses were performed on a BD-LSR flow cytometer (Becton Dickinson) using the Cell Quest software. The Annexin V positive and/or PI positive cells are considered apoptotic cells.

COLO 205 cells [1] = test: Six-hour apoptosis assay (Annexin V / PI, FACS) in COLO 205; assay type: cell-based; details: 6 h
Experimental: 1.5×10^5 of COLO 205 cells were seeded into the wells of 96-well plates. Aliquots of purified m5F1, c5F1-v0, c5F1-v15, c5F1-v16 and control antibodies at the concentration ranging from 2 to 32 ug/ml were prepared freshly in culture medium and added to each well. The sample treated with m9E10 and h16C11A were used as isotype control. The treated cells were kept at 37° incubator for 6 h before FACS analysis for apoptosis. For cellular apoptosis assay, Annexin V staining was measured using Annexin-V-FITC Apoptosis Detection Kit (Strong Biotech, Cat. No. AVK250) following the manufacturer's instruction. In brief, the treated cells were harvested and resuspended in Annexin V binding buffer containing Annexin V-FITC at room temperature. After 15 min incubation in the dark, the cells were washed twice with 200 μl of Annexin V binding buffer. Before FACS analysis, 0.25 μg/ml of propidium iodide (PI) was added. All flow cytometric analyses were performed on a BD-LSR flow cytometer (Becton Dickinson) using the Cell Quest software. The Annexin VI positive and/or PI positive cells are considered apoptotic cells.
1.5×10^5 of Colo205 cells were seeded into the wells of 96-well plates. Aliquots of purified m5F1, c5F1, c5F1-v17, c5F1-v24, c5F1-v25 and control antibodies at the concentration ranging from 8 to 32 ug/ml were prepared freshly in culture medium and added to each well. The treated cells were kept at 37° incubator for 6 h before FACS analysis for apoptosis. For cellular apoptosis assay, Annexin V staining was measured using Annexin-V-FITC Apoptosis Detection Kit (Strong Biotech, Cat. No. AV 250) following the manufacturer's instruction. In brief, the treated cells were harvested and resuspended in Annexin V binding buffer containing Annexin V-FITC at room temperature. After 15 min incubation in the dark, the cells were washed twice with 200 ul of Annexin V binding buffer. Before FACS analysis, 0.25 ug/ml of propidium iodide (PI) was added. All flow cytometric analyses were performed on a BD-LSR flow cytometer (Becton Dickinson) using the Cell Quest software. The Annexin VI positive and/or PI positive cells are considered apoptotic cells.

COLO 205 cells [2] = test: Binding assay: flow cytometric binding of 5F1 antibodies to COLO 205 cells; details: for binding to Colo 205 (words): FIG. 3, 0.125 to 4 ug/ml
Experimental: Purified m5F1, c5F1-v0, c5F1-v15 and c5F1-v16 antibodies at the concentration ranging from 0.125 to 4 ug/ml were added to 1.5×10^5 COLO 205 cells and incubated for 30 min at 4° C., washed for twice with PBS containing 2% FBS and 0.05% NaN3, followed by incubation with 1 μg/ml of corresponding secondary antibodies (R-PE-conjugated goat F(ab′)2 anti-mouse IgG(H+L), Southern Biotech, Cat. No. 1032-09; or R-PE-conjugated goat anti-human IgG, Southern Biotech, Cat. No. 2040-09) at 4° C. for 30 min. At the end of staining, samples were washed twice with PBS containing 2% FBS and 0.05% NaN3 and analyzed by flow cytometer. All flow cytometric analyses were performed on a BD-LSR flow cytometer (Becton Dickinson) using the Cell Quest software.
Purified m5F1, c5F1-v0, c5F1-yl7, c5F1-v24 and c5F1-v25 antibodies at 1 ug/ml were added to 2×10^5 Colo 205 cells and incubated for 30 min at 4° C., washed for twice with PBS containing 1% FBS, followed by incubation with 1 ug/ml of corresponding secondary antibodies (R-PE-conjugated goat F(ab′)2 anti-mouse IgG(H+L), Southern Biotech, Cat. No. 1032-09; or R-PE-conjugated goat anti-human IgG, Southern Biotech, Cat. No. 2040-09) at 4° C. for 30 min. At the end of staining, samples were washed twice with PBS containing 1% FBS and 0.05% NaN3 and analyzed by flow cytometer. All flow cytometric analyses were performed on a BD-LSR flow cytometer (Becton Dickinson) using the Cell Quest software.

Molecule	% apoptosis (Colo205 cells; Oxaliplatin 1 ug/ml alone (Antibody 0))	% apoptosis (Colo205 cells; Oxaliplatin 10 ug/ml alone (Antibody 0))	apoptosis-inducing activity in COLO 205 (COLO 205 cells [1]; 2 to 32 ug/ml, compared with m5F1)	% of Annexin V and/or PI positive cells (COLO 205 cells [1]; Table 7, 4 ug/ml)	% of Annexin V and/or PI positive cells (COLO 205 cells [1]; Table 7, 8 ug/ml)	% of Annexin V and/or PI positive cells (COLO 205 cells [1]; Table 7, 16 ug/ml)	% of Annexin V and/or PI positive cells (COLO 205 cells [1]; Table 7, 32 ug/ml)	% of Annexin V and/or PI positive cells (COLO 205 cells [1]; Table 11 Exp. 1, 8 ug/ml)	% of Annexin V and/or PI positive cells (COLO 205 cells [1]; Table 11 Exp. 1, 16 ug/ml)	% of Annexin V and/or PI positive cells (COLO 205 cells [1]; Table 11 Exp. 1, 32 ug/ml)	% of Annexin V and/or PI positive cells (COLO 205 cells [1]; Table 11 Exp. 2, 8 ug/ml)	% of Annexin V and/or PI positive cells (COLO 205 cells [1]; Table 11 Exp. 2, 16 ug/ml)	% of Annexin V and/or PI positive cells (COLO 205 cells [1]; Table 11 Exp. 2, 32 ug/ml)	binding to Colo 205 (words) (COLO 205 cells [2])	binding to Colo 205 (words) (COLO 205 cells [2]; listed as c5F1v0)	Median Fluorescence Intensity (MFI) (COLO 205 cells [2]; Table 10, antibodies at 1 ug/ml)
O=C1[O][Pt]2([NH][C@@H]3CCCC[C@H]3[NH]2)[O]C1=O [Oxaliplatin]	2%	6%														
c5F1-v0: chimeric 5F1: variable region of murine 5F1 with constant region of human IgG1; heavy chain v0[H], light chain v0[L]			not as efficient as m5F1	33%	46%	68%	78%	34%	60%	70%	54%	63%	69%	bind COLO 205 cells	significant binding	2760
